{
  "source": "paper PMC6997888",
  "about": "“Salicylic Acid Targets Protein Phosphatase 2A to Attenuate Growth in Plants” (Current Biology, 2020)",
  "key": {"[1]": {"molecular_target": "T1, PP2AA3 (Arabidopsis thaliana, UniProt Q38951)", "T1 construct": "recombinant His-PP2AA3 (pET28a, coding region)", "T1 sequence (Q38951 1-587)": "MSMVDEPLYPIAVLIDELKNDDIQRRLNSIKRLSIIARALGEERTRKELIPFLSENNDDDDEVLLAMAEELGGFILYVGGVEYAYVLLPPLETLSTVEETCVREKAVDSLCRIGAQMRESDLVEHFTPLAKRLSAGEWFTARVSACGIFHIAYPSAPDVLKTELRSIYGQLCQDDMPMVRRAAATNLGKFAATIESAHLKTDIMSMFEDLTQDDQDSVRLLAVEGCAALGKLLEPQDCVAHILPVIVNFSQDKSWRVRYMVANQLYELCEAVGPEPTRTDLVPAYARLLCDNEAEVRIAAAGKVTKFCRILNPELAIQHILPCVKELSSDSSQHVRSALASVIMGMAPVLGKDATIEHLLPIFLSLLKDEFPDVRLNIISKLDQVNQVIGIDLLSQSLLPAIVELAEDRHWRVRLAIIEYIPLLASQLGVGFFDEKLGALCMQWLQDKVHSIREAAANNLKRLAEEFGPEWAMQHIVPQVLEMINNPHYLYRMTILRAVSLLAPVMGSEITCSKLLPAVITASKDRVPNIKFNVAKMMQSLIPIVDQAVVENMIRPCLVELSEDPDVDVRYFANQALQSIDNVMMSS", "assay": "SPR, steady state; SA-f immobilized on CM5 chip, His-PP2AA3 flowed over", "format": "binding", "text": "SPR, steady state; SA-f immobilized on CM5 chip, His-PP2AA3 flowed over on PP2AA3 | The same sensor chip as above was used, and different concentrations of His-PP2AA3 were applied."}, "[2]": {"molecular_target": "T2, PP2AA1 (Arabidopsis thaliana, UniProt Q38845)", "T2 construct": "recombinant His-PP2AA1 (pET28a, coding region)", "T2 sequence (Q38845 1-588)": "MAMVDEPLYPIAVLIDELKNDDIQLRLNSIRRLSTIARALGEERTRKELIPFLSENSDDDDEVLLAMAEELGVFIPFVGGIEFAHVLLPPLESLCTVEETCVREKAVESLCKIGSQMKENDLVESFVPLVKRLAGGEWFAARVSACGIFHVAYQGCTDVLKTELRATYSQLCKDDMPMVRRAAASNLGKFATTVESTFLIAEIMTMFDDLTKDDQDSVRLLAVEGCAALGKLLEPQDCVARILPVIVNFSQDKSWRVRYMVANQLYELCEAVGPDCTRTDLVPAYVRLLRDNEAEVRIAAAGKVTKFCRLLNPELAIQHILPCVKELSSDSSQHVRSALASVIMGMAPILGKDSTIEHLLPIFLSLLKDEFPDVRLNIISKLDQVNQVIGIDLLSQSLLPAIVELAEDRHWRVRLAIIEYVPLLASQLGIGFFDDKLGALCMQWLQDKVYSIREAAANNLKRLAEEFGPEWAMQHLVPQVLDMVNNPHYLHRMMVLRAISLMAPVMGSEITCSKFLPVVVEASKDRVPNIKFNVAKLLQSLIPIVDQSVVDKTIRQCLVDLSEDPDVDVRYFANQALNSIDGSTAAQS", "assay": "SPR, steady state; SA-f immobilized on CM5 chip, His-PP2AA1 flowed over", "format": "binding", "text": "SPR, steady state; SA-f immobilized on CM5 chip, His-PP2AA1 flowed over on PP2AA1 | An active synthetic SA analog (SA-f) was immobilized on a CM-5 sensor chip, and different concentrations of His-PP2AA1 were applied"}},
  "note": "pKd: −log10 of the molar value.",
  "data": [
    {"smiles": "NCCCCCOc1ccc(O)c(C(=O)O)c1", "note": "[SA-f, 5-((5-aminopentyl)oxy)-2-hydroxybenzoic acid]", "values": [
      {"measurement": "pKd", "setting": "[1]", "result": 5.72},
      {"measurement": "pKd", "setting": "[2]", "result": 5.44}
    ]}
  ]
}
